Measured values taken from the NIST ThermoML archive (doi:10.1021/je301095j).

Assay: xn = mol fraction of the nth substance listed
Conditions: 101 kPa, Liquid; for kinematic viscosity: Capillary tube (Ostwald / Ubbelohde) method; for mass density: Vibrating tube method

COCCOC [1,2-dimethoxyethane] + CCCCCCCCO
Conditions | kinematic viscosity [m2/s] | mass density [kg/m3]
283.15 K, x1 = 0.06697 | 1.152e-05 | 833.91
283.15 K, x1 = 0.1224 | 8.912e-06 | 835.41
283.15 K, x1 = 0.2171 | 5.951e-06 | 838.23
283.15 K, x1 = 0.3108 | 4.177e-06 | 841.31
283.15 K, x1 = 0.4036 | 3.014e-06 | 844.65
283.15 K, x1 = 0.5046 | 2.16e-06 | 848.72
283.15 K, x1 = 0.593 | 1.65e-06 | 852.66
283.15 K, x1 = 0.6949 | 1.225e-06 | 857.74
283.15 K, x1 = 0.7907 | 9.43e-07 | 863.1
283.15 K, x1 = 0.8983 | 7.18e-07 | 870.05
283.15 K, x1 = 0.9329 | 6.62e-07 | 872.53
293.15 K, x1 = 0.06547 | 8.238e-06 | 826.71
293.15 K, x1 = 0.1085 | 6.898e-06 | 827.8
293.15 K, x1 = 0.208 | 4.672e-06 | 830.48
293.15 K, x1 = 0.3098 | 3.277e-06 | 833.51
293.15 K, x1 = 0.4069 | 2.39e-06 | 836.71
293.15 K, x1 = 0.5036 | 1.79e-06 | 840.25
293.15 K, x1 = 0.5981 | 1.37e-06 | 844.1
293.15 K, x1 = 0.6905 | 1.07e-06 | 848.29
293.15 K, x1 = 0.7963 | 8.12e-07 | 853.72
293.15 K, x1 = 0.896 | 6.42e-07 | 859.6
293.15 K, x1 = 0.9434 | 5.8e-07 | 862.69
303.15 K, x1 = 0.05281 | 6.333e-06 | 819.29
303.15 K, x1 = 0.2029 | 3.707e-06 | 822.86
303.15 K, x1 = 0.2197 | 3.499e-06 | 823.3
303.15 K, x1 = 0.299 | 2.72e-06 | 825.44
303.15 K, x1 = 0.3826 | 2.122e-06 | 827.89
303.15 K, x1 = 0.4984 | 1.531e-06 | 831.64
303.15 K, x1 = 0.6107 | 1.14e-06 | 835.78
303.15 K, x1 = 0.6969 | 9.2e-07 | 839.34
303.15 K, x1 = 0.8038 | 7.15e-07 | 844.34
303.15 K, x1 = 0.892 | 5.86e-07 | 849.04
303.15 K, x1 = 0.935 | 5.35e-07 | 851.56
313.15 K, x1 = 0.05472 | 4.688e-06 | 812.24
313.15 K, x1 = 0.1071 | 3.922e-06 | 813.31
313.15 K, x1 = 0.2145 | 2.8e-06 | 815.67
313.15 K, x1 = 0.2882 | 2.251e-06 | 817.43
313.15 K, x1 = 0.4028 | 1.643e-06 | 820.44
313.15 K, x1 = 0.5028 | 1.27e-06 | 823.38
313.15 K, x1 = 0.5955 | 1.008e-06 | 826.4
313.15 K, x1 = 0.6897 | 8.07e-07 | 829.8
313.15 K, x1 = 0.7898 | 6.45e-07 | 833.92
313.15 K, x1 = 0.8945 | 5.16e-07 | 838.85
313.15 K, x1 = 0.9681 | 4.44e-07 | 842.83

COCCOC [1,2-dimethoxyethane] + CCCCCO
Conditions | kinematic viscosity [m2/s] | mass density [kg/m3]
283.15 K, x1 = 0.04484 | 5.31e-06 | 824.28
283.15 K, x1 = 0.07064 | – | 825.63
283.15 K, x1 = 0.1021 | 4.09e-06 | 827.27
283.15 K, x1 = 0.2104 | 2.73e-06 | 833.01
283.15 K, x1 = 0.3077 | 2.01e-06 | 838.24
283.15 K, x1 = 0.4078 | 1.54e-06 | 843.7
283.15 K, x1 = 0.4902 | 1.27e-06 | 848.25
283.15 K, x1 = 0.5751 | – | 853
283.15 K, x1 = 0.712 | 8.27e-07 | 860.78
283.15 K, x1 = 0.7978 | 7.25e-07 | 865.75
283.15 K, x1 = 0.8137 | – | 866.69
283.15 K, x1 = 0.8957 | 6.35e-07 | 871.5
283.15 K, x1 = 0.9347 | – | 873.81
283.15 K, x1 = 0.9473 | 5.96e-07 | 874.57
293.15 K, x1 = 0.04837 | 3.98e-06 | 816.95
293.15 K, x1 = 0.07064 | – | 818.04
293.15 K, x1 = 0.09244 | 3.32e-06 | 819.11
293.15 K, x1 = 0.1962 | – | 824.24
293.15 K, x1 = 0.2048 | 2.24e-06 | 824.66
293.15 K, x1 = 0.3078 | 1.65e-06 | 829.83
293.15 K, x1 = 0.408 | 1.28e-06 | 834.94
293.15 K, x1 = 0.497 | 1.05e-06 | 839.55
293.15 K, x1 = 0.595 | 8.65e-07 | 844.67
293.15 K, x1 = 0.6985 | 7.25e-07 | 850.18
293.15 K, x1 = 0.7088 | – | 850.73
293.15 K, x1 = 0.7978 | 6.17e-07 | 855.54
293.15 K, x1 = 0.8137 | – | 856.41
293.15 K, x1 = 0.896 | 5.4e-07 | 860.92
293.15 K, x1 = 0.9071 | – | 861.54
293.15 K, x1 = 0.9541 | 5.01e-07 | 864.14
303.15 K, x1 = 0.04441 | 3.14e-06 | 809.26
303.15 K, x1 = 0.1118 | 2.45e-06 | 812.32
303.15 K, x1 = 0.1947 | 1.89e-06 | 816.15
303.15 K, x1 = 0.3088 | 1.39e-06 | 821.48
303.15 K, x1 = 0.4056 | 1.11e-06 | 826.06
303.15 K, x1 = 0.4948 | 9.29e-07 | 830.35
303.15 K, x1 = 0.6215 | – | 836.52
303.15 K, x1 = 0.7076 | 6.5e-07 | 840.79
303.15 K, x1 = 0.8038 | 5.69e-07 | 845.62
303.15 K, x1 = 0.8519 | – | 848.06
303.15 K, x1 = 0.8998 | 5.08e-07 | 850.52
303.15 K, x1 = 0.9524 | 4.8e-07 | 853.23
313.15 K, x1 = 0.06014 | 2.34e-06 | 802.42
313.15 K, x1 = 0.0969 | 2.08e-06 | 803.97
313.15 K, x1 = 0.1159 | – | 804.76
313.15 K, x1 = 0.2221 | – | 809.31
313.15 K, x1 = 0.3249 | 1.13e-06 | 813.76
313.15 K, x1 = 0.4049 | 9.58e-07 | 817.27
313.15 K, x1 = 0.4955 | 8.09e-07 | 821.28
313.15 K, x1 = 0.599 | 6.82e-07 | 825.94
313.15 K, x1 = 0.7001 | 5.86e-07 | 830.56
313.15 K, x1 = 0.801 | 5.16e-07 | 835.25
313.15 K, x1 = 0.9031 | 4.59e-07 | 840.05
313.15 K, x1 = 0.9604 | 4.34e-07 | 842.78

COCCOC [1,2-dimethoxyethane] + CCO
Conditions | kinematic viscosity [m2/s] | mass density [kg/m3]
283.15 K, x1 = 0.05379 | 1.552e-06 | 805.91
283.15 K, x1 = 0.09719 | 1.381e-06 | 811.83
283.15 K, x1 = 0.2113 | 1.08e-06 | 825.56
283.15 K, x1 = 0.2968 | 9.35e-07 | 834.32
283.15 K, x1 = 0.4056 | 8.09e-07 | 843.94
283.15 K, x1 = 0.4865 | 7.45e-07 | 850.18
283.15 K, x1 = 0.5971 | 6.82e-07 | 857.71
283.15 K, x1 = 0.6948 | 6.38e-07 | 863.49
283.15 K, x1 = 0.8257 | 5.98e-07 | 870.24
283.15 K, x1 = 0.8749 | 5.83e-07 | 872.52
283.15 K, x1 = 0.9456 | 5.71e-07 | 875.57
293.15 K, x1 = 0.05746 | 1.304e-06 | 797.66
293.15 K, x1 = 0.09986 | 1.17e-06 | 803.22
293.15 K, x1 = 0.1453 | 1.07e-06 | 808.77
293.15 K, x1 = 0.2138 | 9.37e-07 | 816.42
293.15 K, x1 = 0.2947 | 8.24e-07 | 824.42
293.15 K, x1 = 0.399 | 7.25e-07 | 833.43
293.15 K, x1 = 0.4877 | 6.64e-07 | 840.1
293.15 K, x1 = 0.5965 | 6.09e-07 | 847.24
293.15 K, x1 = 0.6885 | 5.75e-07 | 852.56
293.15 K, x1 = 0.8249 | 5.39e-07 | 859.38
293.15 K, x1 = 0.8772 | 5.26e-07 | 861.72
293.15 K, x1 = 0.9542 | 5.13e-07 | 864.93
303.15 K, x1 = 0.04309 | 1.14e-06 | 786.92
303.15 K, x1 = 0.1038 | 9.89e-07 | 794.71
303.15 K, x1 = 0.2082 | 8.13e-07 | 806.41
303.15 K, x1 = 0.2955 | 7.17e-07 | 814.8
303.15 K, x1 = 0.3926 | 6.39e-07 | 822.94
303.15 K, x1 = 0.497 | 5.82e-07 | 830.54
303.15 K, x1 = 0.5918 | 5.43e-07 | 836.55
303.15 K, x1 = 0.6991 | 5.1e-07 | 842.5
303.15 K, x1 = 0.8103 | 4.86e-07 | 847.89
303.15 K, x1 = 0.8876 | 4.73e-07 | 851.26
303.15 K, x1 = 0.9199 | 4.68e-07 | 852.57
313.15 K, x1 = 0.04639 | 9.59e-07 | 778.57
313.15 K, x1 = 0.1049 | 8.49e-07 | 785.84
313.15 K, x1 = 0.211 | 7.05e-07 | 797.27
313.15 K, x1 = 0.2977 | 6.27e-07 | 805.28
313.15 K, x1 = 0.3787 | 5.75e-07 | 811.92
313.15 K, x1 = 0.4959 | 5.21e-07 | 820.25
313.15 K, x1 = 0.6512 | 4.7e-07 | 829.41
313.15 K, x1 = 0.6979 | 4.62e-07 | 831.83
313.15 K, x1 = 0.8168 | 4.39e-07 | 837.35
313.15 K, x1 = 0.8803 | 4.32e-07 | 840.03
313.15 K, x1 = 0.9384 | 4.23e-07 | 842.37
